Key:
[1] = system: miniature PARADE® roses; assay: Foliar MDHJ spray, leaf senescence in potted miniature roses (Example 1); format: in vivo
Protocol: Potted miniature […]® roses were evaluated for the effect on leaf senescence of foliar spray treatment with an MDHJ formulation. […] Another group of four plants was sprayed with a formulation comprising 1.5 mM MDHJ, 0.5% TRITON® X-100, and 0.125% canola oil. The treated plants were sprayed on six occasions, on days 1, 3, 12, 29, 31, and 58, by spraying foliage to the point of drip. […] Senescence was indicated by chlorosis and necrosis affecting greater than 50% of an individual leaflet.

[2] = system: Yellow Dwarf roses; assay: Foliar MDHJ spray, leaf senescence in potted Yellow Dwarf roses (Example 2); format: in vivo; conditions: one foliar spray
Protocol: Potted Yellow Dwarf roses were grouped into one of four groups, and each of the groups received one treatment. One group was an untreated control (UTC), while the other three groups were treated with aqueous solutions of MDHJ that differed only in the concentration of MDHJ. There were three plants in each group. Before the trial began, naturally senescing leaves were visible on all plants; these were removed at the time that the trial began. The rose leaves received one foliar spray treatment by applying spray until the point of drip. […] Senescence was indicated by chlorosis and necrosis affecting greater than 50% of an individual leaf. After each evaluation, senescing leaves were removed. [table]

[3] = system: spinach seedlings, cultivar 'Merlo Nero'; assay: MDHJ spray, leaf senescence in greenhouse-grown spinach seedlings (Example 3); format: in vivo
Protocol: Greenhouse-grown spinach seedlings, cultivar ‘Merlo Nero,’ were divided into two groups, with eight plants per group. One group was left untreated, while the other group was treated with 0.5 mM MDHJ in 0.1% ethanol by spraying leaves until the point of drip. Treatments occurred on days 1, 4 and 8 of the experiment. On day 6, senescence was noted on some leaves, defined by chlorosis and/or necrosis. Senescence began at the leaf tip and spread towards the petiole. […] All leaves from each plant were then harvested and combined for each treatment. The total number of senescing leaves were counted and taken as a percentage of the total number of leaves per treatment. Senescence was indicated by chlorosis and necrosis affecting greater than 50% of an individual leaf.

[4] = system: corn ('Kandy Korn', extra sweet) seedlings; assay: Foliar MDHJ spray, leaf senescence in corn seedlings (Example 4); format: in vivo; conditions: 6 days after treatment
Protocol: Seeds of corn (‘Kandy Korn’, extra sweet) were planted in 2-inch pots. Seedlings were germinated under 16-hour day/8-hour night greenhouse conditions. Plants were placed outdoors and received 5-6 hours of natural, direct light. Eighteen days after planting, seedlings received one of two treatments. • Treatment 1 (n=11): Foliar spray with water—control • Treatment 2 (n=12): Foliar spray of 1 mM MDHJ in water. Plant leaves from both treatments were sprayed until the point of drip and allowed to air dry before being randomly combined into the same growing tray (to provide plants from both treatments with identical growing conditions). […] Plants were observed and visible leaf senescence recorded 6 days after the single treatment. Plants were scored according to presence or absence of senescence on any leaf of the plant. […] Of the plants with senescing leaves, only one leaf per plant had senescence (10%) in the Treatment 2 group.

[5] = Solubility in water; format: physicochemical
[6] = system: plants; conditions: U.S. Patent Application Publication No. 2009/0082453; cited from earlier work
[7] = system: corn, rice, wheat, oat, barley, arabidopsis, sunflower, and zucchini; conditions: application to intact as well as excised plant leaves; literature; cited from earlier work

SMILES: CCCCCC1C(=O)CCC1CC(=O)OC (stereo not shown) [MDHJ, methyl dihydrojasmonate]
- senescing leaves (in words) ([1]; 1.5 mM MDHJ foliar spray, sixty-five days after treatment, untreated up to 9.4% of leaflets): no senescing leaves
- % Leaflets exhibiting senescence ([1]; individual plant, foliar spray 1.5 mM MDHJ, 0.5% TRITON X-100, 0.125% canola oil on days 1, 3, 12, 29, 31, 58, analyzed 65 days after first treatment, senescence = chlorosis and necrosis >50% of leaflet): 0.0%
- rate of naturally senescing leaves compared to the untreated control group (in words) ([2]; MDHJ treatment in general (1.5, 3.0, 6.0 mM)): reduced the rate of naturally senescing leaves
- Mean No. Leaves (exhibiting senescence) ([2]; Treatment Group 2: 1.5 mM MDHJ + 0.125% TRITON X-100 + 0.5% Canola Oil, Day 3): 27
- Mean No. Leaves (exhibiting senescence) ([2]; Treatment Group 2: 1.5 mM MDHJ + 0.125% TRITON X-100 + 0.5% Canola Oil, Day 7): 1
- Mean No. Leaves (exhibiting senescence) ([2]; Treatment Group 2: 1.5 mM MDHJ + 0.125% TRITON X-100 + 0.5% Canola Oil, Day 10): 5
- Mean No. Leaves (exhibiting senescence) ([2]; Treatment Group 2: 1.5 mM MDHJ + 0.125% TRITON X-100 + 0.5% Canola Oil, Day 14): 13
- Mean No. Leaves (exhibiting senescence) ([2]; Treatment Group 2: 1.5 mM MDHJ + 0.125% TRITON X-100 + 0.5% Canola Oil, Day 31): 27
- Mean No. Leaves (exhibiting senescence) ([2]; Treatment Group 3: 3.0 mM MDHJ + 0.125% TRITON X-100 + 0.5% Canola Oil, Day 3): 25
- Mean No. Leaves (exhibiting senescence) ([2]; Treatment Group 3: 3.0 mM MDHJ + 0.125% TRITON X-100 + 0.5% Canola Oil, Day 7): 1
- Mean No. Leaves (exhibiting senescence) ([2]; Treatment Group 3: 3.0 mM MDHJ + 0.125% TRITON X-100 + 0.5% Canola Oil, Day 10): 4
- Mean No. Leaves (exhibiting senescence) ([2]; Treatment Group 3: 3.0 mM MDHJ + 0.125% TRITON X-100 + 0.5% Canola Oil, Day 14): 12
- Mean No. Leaves (exhibiting senescence) ([2]; Treatment Group 3: 3.0 mM MDHJ + 0.125% TRITON X-100 + 0.5% Canola Oil, Day 31): 25
- Mean No. Leaves (exhibiting senescence) ([2]; Treatment Group 4: 6.0 mM MDHJ + 0.125% TRITON X-100 + 0.5% Canola Oil, Day 3): 23
- Mean No. Leaves (exhibiting senescence) ([2]; Treatment Group 4: 6.0 mM MDHJ + 0.125% TRITON X-100 + 0.5% Canola Oil, Day 7): 2
- Mean No. Leaves (exhibiting senescence) ([2]; Treatment Group 4: 6.0 mM MDHJ + 0.125% TRITON X-100 + 0.5% Canola Oil, Day 10): 5
- Mean No. Leaves (exhibiting senescence) ([2]; Treatment Group 4: 6.0 mM MDHJ + 0.125% TRITON X-100 + 0.5% Canola Oil, Day 14): 12
- Mean No. Leaves (exhibiting senescence) ([2]; Treatment Group 4: 6.0 mM MDHJ + 0.125% TRITON X-100 + 0.5% Canola Oil, Day 31): 23
- % of Leaves Exhibiting Senescence ([3]; 0.5 mM MDHJ in 0.1% ethanol sprayed on days 1, 4 and 8, counted day 8, untreated 34.6%): 8.6%
- % of Plants Exhibiting Senescence ([3]; 0.5 mM MDHJ in 0.1% ethanol, day 8, eight plants, untreated 87.5%): 37.5%
- Number of Plants Exhibiting Chlorosis or Necrosis ([3]; 0.5 mM MDHJ in 0.1% ethanol, day 8, of 8 plants, untreated 7): 3
- Number of Senescent Leaves ([3]; 0.5 mM MDHJ in 0.1% ethanol, day 8, of 93 leaves in total, untreated 36 of 104): 8
- of the plants with senescing leaves, only one leaf per plant had senescence (percentage in brackets) ([4]; Treatment 2: 1 mM MDHJ in water): 10%
- severity of senescence: mean % yellow per senescing leaf (leaf area) ([4]; Treatment 2: 1 mM MDHJ in water, water control 43%): 15%
- % of plants with two senescent leaves ([4]; Treatment 2: single foliar spray of 1 mM MDHJ in water (n = 12), water control 27%): 0%
- % of plants with one senescent leaf ([4]; Treatment 2: single foliar spray of 1 mM MDHJ in water (n = 12), water control 36%): 25%
- % of plants with senescing leaves ([4]; Treatment 2: single foliar spray of 1 mM MDHJ in water (n = 12), water control 64%): 27%
- solubility in water (in words) [5]: relatively low solubility in water
- effect on biotic attack and disease in plants (in words) [6]: effective in reducing biotic attack and disease in plants

SMILES: CC/C=C\CC1C(=O)CCC1CC(=O)O (stereo not shown) [jasmonic acid, 2-(3-oxo-2-(pent-2-enyl)cyclopentyl)acetic acid]
- effect on leaf senescence (in words) [7]: promotes or accelerates leaf senescence

SMILES: CC/C=C\CC1C(=O)CCC1CC(=O)OC (stereo not shown) [methyl jasmonate]
- effect on leaf senescence (in words) [7]: promotes or accelerates leaf senescence

— patent US9301524B2, “Methods for reducing leaf senescence using methyl dihydrojasmonate” (New Biology, Inc., priority 2008, dated 2016)
